The test system of one experiment is D. immitis microfilariae. In words: Dirofilaria immitis, microfilariae (DiMF) in vitro motility assay. Format: cell-based. The note with it: Dirofilaria immitis, 72 h, read-out: DiMF minimally effective dose (MEC).
In experiment [1] the test system is Trichostrongylus colubriformis. In words: Jird efficacy model. Format: in vivo. The settings on record: Trichostrongylus colubriformis, sc, 96 h, read-out: Jird % (percentage efficacy).
The subject of the next experiment is Haemonchus contortus L3. In words: microbe, parasite or virus in culture. Type of experiment: cell-based. The note with it: Haemonchus contortus, 96 h, read-out: HcL3 Minimal Effective Concentration (MEC).

For the compound `N#Cc1ccc(/C=C/CN2CCc3c(c4cc(C(F)(F)F)ccc4n3C(=O)NCc3ccnc(F)c3)C2)cc1` [Example 420, (E)-2-(3-(4-cyanophenyl)allyl)-N-((2-fluoropyridin-4-yl)methyl)-8-(trifluoromethyl)-1,2,3,4-tetrahydro-5H-pyrido[4,3-b]indole-5-carboxamide], the minimal effective concentration in the experiment on D. immitis microfilariae came to 14.1 µM; with Haemonchus contortus L3, 2.8 µM. In addition, the inhibition in vivo at 10 mg/kg in experiment [1] was 100%.
The matching figures for `O=C(NCc1ccnc(F)c1)n1c2c(c3cc(C(F)(F)F)ccc31)CN(C/C=C/c1ccc(Cl)cc1)CC2` [Example 421, (E)-2-(3-(4-chlorophenyl)allyl)-N-((2-fluoropyridin-4-yl)methyl)-8-(trifluoromethyl)-1,2,3,4-tetrahydro-5H-pyrido[4,3-b]indole-5-carboxamide]: 12.7 µM, 3.3 µM and 100%.
For the compound `O=C(NCc1ccnc(Cl)c1)n1c2c(c3c(Br)cccc31)CN(C/C=C/c1ccc(Cl)cc1)CC2` [Example 444, (E)-9-bromo-2-(3-(4-chlorophenyl)allyl)-N-((2-chloropyridin-4-yl)methyl)-1,2,3,4-tetrahydro-5H-pyrido[4,3-b]indole-5-carboxamide], the minimal effective concentration in the experiment on D. immitis microfilariae stood at 2.4 µM; in the experiment on Haemonchus contortus L3, 0.7 µM. The inhibition in vivo at 10 mg/kg in experiment [1] amounted to 100%.
As for `CS(=O)(=O)c1ccc2c(c1)c1c(n2C(=O)NCc2ccnc(Cl)c2)CCN(C/C=C/c2ccc(F)cc2)C1` [Example 459, (E)-N-((2-chloropyridin-4-yl)methyl)-2-(3-(4-fluorophenyl)allyl)-8-(methylsulfonyl)-1,2,3,4-tetrahydro-5H-pyrido[4,3-b]indole-5-carboxamide], the minimal effective concentration in the experiment on D. immitis microfilariae amounted to 5.7 µM; in the experiment with Haemonchus contortus L3, 1 µM. Also, in experiment [1], the inhibition in vivo at 10 mg/kg came out at 92%.
The corresponding values for `N#Cc1ccc(/C=C/CN2CCc3c(c4cc(F)c(OC(F)(F)F)cc4n3C(=O)NCc3ccnc(Cl)c3)C2)cc1` [Example 470, (E)-N-((2-chloropyridin-4-yl)methyl)-2-(3-(4-cyanophenyl)allyl)-8-fluoro-7-(trifluoromethoxy)-1,2,3,4-tetrahydro-5H-pyrido[4,3-b]indole-5-carboxamide] are 13.5 µM, 1 µM and 100%.
The matching figures for `O=C(NCc1ccnc(Cl)c1)n1c2c(c3cc4c(cc31)COC4)CN(C/C=C/c1ccc(F)cc1)CC2` [Example 481, (E)-N-((2-chloropyridin-4-yl)methyl)-8-(3-(4-fluorophenyl)allyl)-1,3,6,7,8,9-hexahydro-5H-furo[3,4-f]pyrido[4,3-b]indole-5-carboxamide]: 3.3 µM, 0.3 µM and 99%.
The corresponding values for `O=C(NCc1ccnc(F)c1)n1c2c(c3cc4c(cc31)COC4)CN(C/C=C/c1ccc(Cl)cc1)CC2` [Example 483, (E)-8-(3-(4-chlorophenyl)allyl)-N-((2-fluoropyridin-4-yl)methyl)-1,3,6,7,8,9-hexahydro-5H-furo[3,4-f]pyrido[4,3-b]indole-5-carboxamide] are 3.3 µM, 0.5 µM and 100%.
Regarding `O=C(NCc1cnc(Cl)s1)n1c2c(c3cc4c(cc31)COC4)CN(C/C=C/c1ccc(Cl)cc1)CC2` [Example 489, (E)-8-(3-(4-chlorophenyl)allyl)-N-((2-chlorothiazol-5-yl)methyl)-1,3,6,7,8,9-hexahydro-5H-furo[3,4-f]pyrido[4,3-b]indole-5-carboxamide], the minimal effective concentration in the experiment on D. immitis microfilariae and with Haemonchus contortus L3 was 3.3 µM throughout. Besides, the inhibition in vivo at 10 mg/kg in experiment [1] turned out to be 100%.
On to `O=C(NCc1ccnc(Cl)c1)n1c2c(c3cc(N4CCOCC4)ccc31)CN(C/C=C/c1ccc(Cl)c(F)c1)CC2` [Example 504, (E)-2-(3-(4-chloro-3-fluorophenyl)allyl)-N-((2-chloropyridin-4-yl)methyl)-8-morpholino-1,2,3,4-tetrahydro-5H-pyrido[4,3-b]indole-5-carboxamide], for which the minimal effective concentration in the experiment with D. immitis microfilariae was found to be 10 µM; with Haemonchus contortus L3, 5.7 µM. Further, the inhibition in vivo at 10 mg/kg in experiment [1] was 100%.
Consider `O=C(NCc1ccnc(Cl)c1)n1c2c(c3cc(N4CCOCC4)ccc31)CN(C/C=C/c1ccc(Cl)cc1)CC2` [Example 505, (E)-2-(3-(4-chlorophenyl)allyl)-N-((2-chloropyridin-4-yl)methyl)-8-morpholino-1,2,3,4-tetrahydro-5H-pyrido[4,3-b]indole-5-carboxamide], for which the results for the minimal effective concentration in the experiment with D. immitis microfilariae and with Haemonchus contortus L3 were 13.5 µM and 10 µM, respectively. For the same compound, the inhibition in vivo at 10 mg/kg in experiment [1] turned out to be 100%.

The values above are taken from patent US10570129B2 (Zoetis Services LLC, priority 2015, dated 2020).
